PubChem BioAssay AID2060497 (Molecular Pharmacology Branch, DTP, NCI, 2025)

Tested on: 317291-083-R-J1-PDC complex spheroids, viability
Assay: Anticancer human tumor 317291-083-R-J1-PDC patient-derived soft tissue sarcoma cell line growth inhibition [GQUAD]
Details: for IC50: curve of first compound; for viability, T/C: stronger effect = lower value
Method in brief: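 Viability of tumor cells grown as complex spheroids with endothelial and stromal cells, exposed to drug combinations. Top concentration at or near clinical Cmax (else 10 microM), diluted in half-log increments.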

[1] = second compound 0.0316 µM, first compound 0.000999 µM
[2] = second compound 0.0316 µM, first compound 0.00316 µM
[3] = second compound 0.0316 µM, first compound 0.00999 µM
[4] = second compound 0.0316 µM, first compound 0.0316 µM
[5] = second compound 0.0316 µM, first compound 0.0999 µM
[6] = second compound 0.0316 µM, first compound 0.316 µM
[7] = second compound 0.1 µM, first compound 0.000999 µM
[8] = second compound 0.1 µM, first compound 0.00316 µM
[9] = second compound 0.1 µM, first compound 0.00999 µM
[10] = second compound 0.1 µM, first compound 0.0316 µM
[11] = second compound 0.1 µM, first compound 0.0999 µM
[12] = second compound 0.1 µM, first compound 0.316 µM
[13] = second compound 0.316 µM, first compound 0.000999 µM
[14] = second compound 0.316 µM, first compound 0.00316 µM
[15] = second compound 0.316 µM, first compound 0.00999 µM
[16] = second compound 0.316 µM, first compound 0.0316 µM
[17] = second compound 0.316 µM, first compound 0.0999 µM
[18] = second compound 0.316 µM, first compound 0.316 µM
[19] = second compound 1 µM, first compound 0.000999 µM
[20] = second compound 1 µM, first compound 0.00316 µM
[21] = second compound 1 µM, first compound 0.00999 µM
[22] = second compound 1 µM, first compound 0.0316 µM
[23] = second compound 1 µM, first compound 0.0999 µM
[24] = second compound 1 µM, first compound 0.316 µM
[25] = second compound 3.16 µM, first compound 0.000999 µM
[26] = second compound 3.16 µM, first compound 0.00316 µM
[27] = second compound 3.16 µM, first compound 0.00999 µM
[28] = second compound 3.16 µM, first compound 0.0316 µM
[29] = second compound 3.16 µM, first compound 0.0999 µM
[30] = second compound 3.16 µM, first compound 0.316 µM
[31] = second compound 10 µM, first compound 0.000999 µM
[32] = second compound 10 µM, first compound 0.00316 µM
[33] = second compound 10 µM, first compound 0.00999 µM
[34] = second compound 10 µM, first compound 0.0316 µM
[35] = second compound 10 µM, first compound 0.0999 µM
[36] = second compound 10 µM, first compound 0.316 µM
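Also: spheroids exposed to compounds for one week before readout.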
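For viability, T/C in this document: percent viability relative to DMSO vehicle wells taken as 100%.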

Work on `CC[C@@]1(O)C(=O)OCc2c1cc1n(c2=O)Cc2cc3c(CN(C)C)c(O)ccc3nc2-1` + CN(C)c1ccc(Nc2c3ccc(NC(=O)CCN4CCCC4)cc3nc3cc(NC(=O)CCN4CCCC4)ccc23)cc1 yielded an IC50 (second compound 0.0316 µM) of 54.9 nM, an IC50 (second compound 0.1 µM) of 50.5 nM and an IC50 (second compound 0.316 µM) of 25.9 nM. It also gave an IC50 (second compound 1 µM) of under 0.999 nM, an IC50 (second compound 3.16 µM) of under 0.999 nM and an IC50 (second compound 10 µM) of under 0.999 nM. The viability, T/C [1] was 99.5%, the viability, T/C [2] was 98.3% and the viability, T/C [3] was 109%. The viability, T/C [4] was 70.3%, the viability, T/C [5] was 29% and the viability, T/C [6] was 16.7%. It also gave a viability, T/C [7] of 95%, a viability, T/C [8] of 85.4% and a viability, T/C [9] of 94%. The viability, T/C [10] was 65.5%, the viability, T/C [11] was 26.9% and the viability, T/C [12] was 15.9%. For the same compound, the viability, T/C [13] was 79.8%, the viability, T/C [14] was 90.8% and the viability, T/C [15] was 74.7%. The viability, T/C [16] was 42.6%, the viability, T/C [17] was 28.9% and the viability, T/C [18] was 14.9%. The viability, T/C [19] was 49%, the viability, T/C [20] was 42.6% and the viability, T/C [21] was 48.5%. It also gave a viability, T/C [22] of 36.7%, a viability, T/C [23] of 18.1% and a viability, T/C [24] of 9.13%. It also gave a viability, T/C [25] of 28.4%, a viability, T/C [26] of 24.1% and a viability, T/C [27] of 22.8%. It also gave a viability, T/C [28] of 15.4%, a viability, T/C [29] of 11.5% and a viability, T/C [30] of 9.22%. For the same compound, the viability, T/C [31] was 9.99%, the viability, T/C [32] was 16.1% and the viability, T/C [33] was 5.13%. For the same compound, the viability, T/C [34] was 5.79%, the viability, T/C [35] was 8.35% and the viability, T/C [36] was 4.27%.
With `CCc1c2c(nc3ccc(O)cc13)-c1cc3c(c(=O)n1C2)COC(=O)[C@]3(O)CC` + CN(C)c1ccc(Nc2c3ccc(NC(=O)CCN4CCCC4)cc3nc3cc(NC(=O)CCN4CCCC4)ccc23)cc1 the IC50 (second compound 0.0316 µM) was 1.31 nM, the IC50 (second compound 0.1 µM) was 1.65 nM and the IC50 (second compound 0.316 µM) was under 0.999 nM. It also gave an IC50 (second compound 1 µM) of under 0.999 nM, an IC50 (second compound 3.16 µM) of under 0.999 nM and an IC50 (second compound 10 µM) of under 0.999 nM. It also gave a viability, T/C [1] of 58%, a viability, T/C [2] of 24.2% and a viability, T/C [3] of 15.7%. It also gave a viability, T/C [4] of 10.1%, a viability, T/C [5] of 7.96% and a viability, T/C [6] of 5.2%. For the same compound, the viability, T/C [7] was 65.8%, the viability, T/C [8] was 28.6% and the viability, T/C [9] was 17.5%. The viability, T/C [10] was 10.9%, the viability, T/C [11] was 9.19% and the viability, T/C [12] was 5.38%. For the same compound, the viability, T/C [13] was 48.7%, the viability, T/C [14] was 24.2% and the viability, T/C [15] was 15.5%. It also gave a viability, T/C [16] of 13.7%, a viability, T/C [17] of 8.7% and a viability, T/C [18] of 5.23%. It also gave a viability, T/C [19] of 28.4%, a viability, T/C [20] of 15.4% and a viability, T/C [21] of 10.4%. The viability, T/C [22] was 5.97%, the viability, T/C [23] was 7.46% and the viability, T/C [24] was 3.88%. It also gave a viability, T/C [25] of 20.7%, a viability, T/C [26] of 9.56% and a viability, T/C [27] of 7.45%. For the same compound, the viability, T/C [28] was 4.96%, the viability, T/C [29] was 4.76% and the viability, T/C [30] was 2.38%. It also gave a viability, T/C [31] of 8.21%, a viability, T/C [32] of 7.57% and a viability, T/C [33] of 4.2%. For the same compound, the viability, T/C [34] was 2.29%, the viability, T/C [35] was 2.45% and the viability, T/C [36] was 2.41%.
`COc1cc(C2c3cc4c(cc3C(OC3OC5COC(C)OC5C(O)C3O)C3COC(=O)C23)OCO4)cc(OC)c1O` (stereo unspecified) + CN(C)c1ccc(Nc2c3ccc(NC(=O)CCN4CCCC4)cc3nc3cc(NC(=O)CCN4CCCC4)ccc23)cc1 showed an IC50 (second compound 0.0316 µM) of 310 nM, an IC50 (second compound 0.1 µM) of 357 nM and an IC50 (second compound 0.316 µM) of 283 nM. For the same compound, the IC50 (second compound 1 µM) was 55.4 nM, the IC50 (second compound 3.16 µM) was under 31.6 nM and the IC50 (second compound 10 µM) was under 31.6 nM. For the same compound, the viability, T/C [4] was 89.9%, the viability, T/C (second compound 0.0316 µM, first compound 0.1 µM) was 82.2% and the viability, T/C [6] was 48.9%. It also gave a viability, T/C (second compound 0.0316 µM, first compound 1 µM) of 26.8%, a viability, T/C (second compound 0.0316 µM, first compound 3.16 µM) of 19.4% and a viability, T/C (second compound 0.0316 µM, first compound 10 µM) of 21.7%. The viability, T/C [10] was 92.1%, the viability, T/C (second compound 0.1 µM, first compound 0.1 µM) was 86% and the viability, T/C [12] was 50.4%. The viability, T/C (second compound 0.1 µM, first compound 1 µM) was 29.6%, the viability, T/C (second compound 0.1 µM, first compound 3.16 µM) was 15.7% and the viability, T/C (second compound 0.1 µM, first compound 10 µM) was 18.1%. The viability, T/C [16] was 79.8%, the viability, T/C (second compound 0.316 µM, first compound 0.1 µM) was 71.9% and the viability, T/C [18] was 46.8%. The viability, T/C (second compound 0.316 µM, first compound 1 µM) was 26.1%, the viability, T/C (second compound 0.316 µM, first compound 3.16 µM) was 20.1% and the viability, T/C (second compound 0.316 µM, first compound 10 µM) was 12.3%. It also gave a viability, T/C [22] of 62.1%, a viability, T/C (second compound 1 µM, first compound 0.1 µM) of 37.9% and a viability, T/C [24] of 20.7%. For the same compound, the viability, T/C (second compound 1 µM, first compound 1 µM) was 15.7%, the viability, T/C (second compound 1 µM, first compound 3.16 µM) was 13.5% and the viability, T/C (second compound 1 µM, first compound 10 µM) was 7.56%. For the same compound, the viability, T/C [28] was 39%, the viability, T/C (second compound 3.16 µM, first compound 0.1 µM) was 12.5% and the viability, T/C [30] was 21.5%. For the same compound, the viability, T/C (second compound 3.16 µM, first compound 1 µM) was 9.89%, the viability, T/C (second compound 3.16 µM, first compound 3.16 µM) was 8.39% and the viability, T/C (second compound 3.16 µM, first compound 10 µM) was 6.12%. For the same compound, the viability, T/C [34] was 12.7%, the viability, T/C (second compound 10 µM, first compound 0.1 µM) was 8.34% and the viability, T/C [36] was 4.76%. For the same compound, the viability, T/C (second compound 10 µM, first compound 1 µM) was 7.68%, the viability, T/C (second compound 10 µM, first compound 3.16 µM) was 5.05% and the viability, T/C (second compound 10 µM, first compound 10 µM) was 0.99%.
